Consider five compounds from the NIST ThermoML archive (doi:10.1016/j.jct.2006.07.014).

Molecules are shown by their SMILES. Numbers after ± are expanded uncertainties.

The conditions of data set [1]: Liquid; for mass density: 298.15 K, 101.33 kPa, Vibrating tube method.
The nature of data set [2]: refractive index (Na D-line) (dimensionless). The conditions noted are these: 298.15 K; 101.33 kPa; Liquid; Standard Abbe refractometry.

Usually mass density stands for mass per unit of volume. A word on the vapor or sublimation pressure: it is the equilibrium pressure above the liquid or solid. As usually defined, the refractive index is a measure of how strongly the sample bends light. Turning to `CCCCO` [butan-1-ol], the mass density in data set [1] was 805.8 ± 4.6 kg/m3. For the same compound, in data set [1] (389.15 K), the “vapor or sublimation pressure” value is reported as 94.83 ± 5 kPa. Besides, in data set [2], the refractive index came to 1.3974 ± 0.0012.
In the case of `CCC(C)O` (stereo not given) [butan-2-ol], in data set [1], the mass density was found to be 802.4 ± 4.6 kg/m3. Besides, in data set [1] (371.05 K), the “vapor or sublimation pressure” value is 94.83 ± 5 kPa. Moreover, the refractive index in data set [2] came out at 1.3953 ± 0.0012.
Regarding `CC(C)CO` [2-methyl-1-propanol], the mass density in data set [1] is listed as 797.8 ± 4.6 kg/m3. Further, the “vapor or sublimation pressure” value in data set [1] (379.45 K) was 94.83 ± 5 kPa. Moreover, the refractive index in data set [2] worked out at 1.3939 ± 0.0012.
On to `CC#N` [acetonitrile], for which the mass density in data set [1] is reported as 776.5 ± 4.3 kg/m3. The “vapor or sublimation pressure” value in data set [1] (352.25 K) was found to be 94.83 ± 5 kPa. Moreover, in data set [2], the refractive index is given as 1.3416 ± 0.0012.
For the compound `CC(C)(C)O` [2-methylpropan-2-ol], the mass density in data set [1] stood at 781.2 ± 4.4 kg/m3. Also, the “vapor or sublimation pressure” value in data set [1] (353.85 K) is on record as 94.83 ± 5 kPa. Besides, in data set [2], the refractive index is on record as 1.3852 ± 0.0012.
